Experimental data as given in US5114918A, “Endothelin antagonistic cyclic pentapeptides” (Banyu Pharmaceutical Co., Ltd., priority 1989, dated 1992).
Read-outs that look alike come from different tables or passages of the source. Square brackets hold non-standard residues; d marks the D form. Peptide text beside a SMILES is read from it. * marks the point of attachment. Cya = N[C@@H](CS(=O)(=O)O)C(=O)O; dCya = N[C@H](CS(=O)(=O)O)C(=O)O; Met(O) = CS(=O)CC[C@H](N)C(=O)O; dPen = CC(C)(S)[C@@H](N)C(=O)O; Pip = O=C(O)[C@@H]1CCCCN1; Ac6c = NC1(C(=O)O)CCCCC1; Nle = CCCC[C@H](N)C(=O)O; Nva = CCC[C@H](N)C(=O)O; Aib = CC(C)(N)C(=O)O; Sar = CNCC(=O)O; For = O=C*

Molecular target: T1, endothelin receptor (membrane of smooth muscle tissue of porcine aorta) (Sus scrofa, UniProt Q29010)
T1 construct: from tissue; host or cells: smooth muscle tissue of porcine aorta (membrane fraction)
T1 sequence (Q29010 21-427): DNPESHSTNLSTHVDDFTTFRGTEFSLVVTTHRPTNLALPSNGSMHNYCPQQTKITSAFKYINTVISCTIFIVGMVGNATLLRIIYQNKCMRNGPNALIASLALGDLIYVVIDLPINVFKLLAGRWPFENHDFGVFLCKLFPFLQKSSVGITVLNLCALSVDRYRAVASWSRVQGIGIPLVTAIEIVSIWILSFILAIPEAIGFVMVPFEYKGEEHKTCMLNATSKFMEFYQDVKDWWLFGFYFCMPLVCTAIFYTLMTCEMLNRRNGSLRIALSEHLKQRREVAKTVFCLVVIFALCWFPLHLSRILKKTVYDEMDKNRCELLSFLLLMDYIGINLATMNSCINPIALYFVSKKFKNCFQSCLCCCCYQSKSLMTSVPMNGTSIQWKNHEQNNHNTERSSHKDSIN
Experiment: Endothelin binding inhibition test (125I-endothelin-1, porcine aorta smooth muscle membrane)
Conditions: read-out: 125I-endothelin-1 binding inhibition, Inhibition (%)
Description: Endothelin binding inhibition test
The smooth muscle tissue of porcine aorta was homogenized in a buffer solution of 10 mM MOPS, pH 7.4, at 4° C. by a polytron. To the homogenate, sucrose was added to a concentration of 20%, and the mixture was centrifuged at 1,000×g for 15 minutes, and the supernatant was further centrifuged at 10,000×g for 15 minutes. The supernatant thereof was further centrifuged at 90,000×g for 40 minutes. The membrane precipitate thereby obtained was suspended in a buffer solution of 5 mM HEPES/Tris, pH 7.4, at a concentration of 25 mg/ml.
Then, 16 μl of this membrane suspension was added to 340 μl of 50 mM Tris/HCl buffer, pH 7.4, containing 10 μM calcium chloride, 10 μM magnesium chloride, 0.1 mM PMSF, 1 μM pepstatin A, 2 μM leupeptin, 1 mM 1,10-phenanthroline and 0.1% bovine serum albumin. To this suspension, 4 μl of (A) endothelin-1 (for nonspecific binding: 0.2 μM as the final concentration), (B) buffer solution A (for total control binding), or (C) a test compound (1.1 μM as the final concentration), was added. Further, to each suspension, 40 μl of ^125 I-endothelin-1 (12000-18000 cpm) was added. These mixtures were incubated at 25° C for 4 hours, then subjected to filtration on a glass filter GF/C and then washed with 5 mM HEPES/Tris, pH 7.4, containing 0.3% bovine serum albumin. Then, the radioactivity trapped by the glass filter was measured, and the ^125 I-endothelin-1 binding inhibition D (%) at 1.1 μM of the test compound was determined by the following equation. [formula] Each test was performed in triplicate.

[1] = 1.1 μM of the test compound, porcine aorta smooth muscle membrane, 25° C, 4 hours

CCCC[C@@H]1NC(=O)[C@@H](C(C)C)NC(=O)[C@H](CO)NC(=O)[C@@H](CC(=O)O)NC(=O)[C@@H](Cc2c[nH]c3ccccc23)NC1=O [Example 36, cyclo(-DTrp-DAsp-Ser-DVal-Nle-)] (cyclo([Nle][dW][dD]S[dV]))
inhibition at 1.1 µM [1]: 67%

CSCC[C@@H]1NC(=O)[C@@H](C(C)C)NC(=O)[C@H](CO)NC(=O)[C@@H](CC(=O)O)NC(=O)[C@@H](Cc2c[nH]c3ccccc23)NC1=O [Example 37, cyclo(-DTrp-DAsp-Ser-DVal-Met-)] (cyclo(M[dW][dD]S[dV]))
inhibition at 1.1 µM [1]: 38%

CC(C)[C@H]1NC(=O)[C@H](CC(=O)O)NC(=O)[C@@H](CC(=O)O)NC(=O)[C@@H](Cc2c[nH]c3ccccc23)NC(=O)[C@H](C)NC1=O [Example 38, cyclo(-DTrp-DAsp-Asp-DVal-Ala-)] (cyclo(A[dW][dD]D[dV]))
inhibition at 1.1 µM [1]: 21%

CC(C)[C@H]1NC(=O)[C@H](C)NC(=O)[C@@H](CC(=O)O)NC(=O)[C@@H](Cc2c[nH]c3ccccc23)NC(=O)[C@@H]2CCCN2C1=O [Example 39, cyclo(-DTrp-DAsp-Ala-DVal-Pro-)] (cyclo(A[dV]P[dW][dD]))
inhibition at 1.1 µM [1]: 18%

CC[C@H](C)[C@@H]1NC(=O)[C@@H](C(C)C)NC(=O)[C@@H]2CCCN2C(=O)[C@@H](CC(=O)O)NC(=O)[C@@H](Cc2c[nH]c3ccccc23)NC1=O [Example 40, cyclo(-DTrp-DAsp-Pro-DVal-Ile-)] (cyclo(I[dW][dD]P[dV]))
inhibition at 1.1 µM [1]: 66%

CCCC[C@@H]1NC(=O)[C@@H](C(C)C)NC(=O)[C@@H]2CCCN2C(=O)[C@@H](CC(=O)O)NC(=O)[C@@H](Cc2c[nH]c3ccccc23)NC1=O [Example 41, cyclo(-DTrp-DAsp-Pro-DVal-Nle-)] (cyclo([Nle][dW][dD]P[dV]))
inhibition at 1.1 µM [1]: 83%

CC(C)C[C@@H]1NC(=O)[C@@H](C(C)C)NC(=O)[C@H](CS(=O)(=O)O)NC(=O)[C@@H](CS(=O)(=O)O)NC(=O)[C@@H](Cc2c[nH]c3ccccc23)NC1=O [Example 42, cyclo(-DTrp-DCys(O3 Na)-Cys(O3 Na)-DVal-Leu-)] (cyclo([Cya][dV]L[dW][dCya]))
inhibition at 1.1 µM: 79%

CC(C)C[C@@H]1NC(=O)[C@@H](C(C)C)NC(=O)[C@H](C(C)C)NC(=O)[C@@H](CC(=O)O)NC(=O)[C@@H](Cc2c[nH]c3ccccc23)NC1=O [Example 44, cyclo(-DTrp-DAsp-Val-DVal-Leu-)] (cyclo(L[dW][dD]V[dV]))
inhibition at 1.1 µM [1]: 56%

CCC[C@@H]1NC(=O)[C@@H](C(C)C)NC(=O)[C@@H]2CCCN2C(=O)[C@@H](CC(=O)O)NC(=O)[C@@H](Cc2c[nH]c3ccccc23)NC1=O [Example 45, cyclo(-DTrp-DAsp-Pro-DVal-Nva-)] (cyclo([Nva][dW][dD]P[dV]))
inhibition at 1.1 µM [1]: 85%

CCCC[C@@H]1NC(=O)[C@@H](CC(=O)O)NC(=O)[C@@H](Cc2c[nH]c3ccccc23)NC(=O)[C@H](CC(C)C)NC(=O)[C@@H](C(C)C)NC1=O [Example 46, cyclo(-DTrp-DAsp-Nle-DVal-Leu-)] (cyclo(L[dW][dD][Nle][dV]))
inhibition at 1.1 µM [1]: 75%

CC(C)C[C@@H]1NC(=O)[C@@H](C(C)C)NC(=O)[C@@H]2CCCCN2C(=O)[C@@H](CC(=O)O)NC(=O)[C@@H](Cc2c[nH]c3ccccc23)NC1=O [Example 47, cyclo(-DTrp-DAsp-Pip-DVal-Leu-)] (cyclo(L[dW][dD][Pip][dV]))
inhibition at 1.1 µM [1]: 89%

CC(C)C[C@@H]1NC(=O)[C@@H](C(C)C)NC(=O)[C@H](Cc2ccccc2)NC(=O)[C@@H](CC(=O)O)NC(=O)[C@@H](Cc2c[nH]c3ccccc23)NC1=O [Example 48, cyclo(-DTrp-DAsp-Phe-DVal-Leu-)] (cyclo(F[dV]L[dW][dD]))
inhibition at 1.1 µM [1]: 71%

CC(C)C[C@@H]1NC(=O)[C@@H](C(C)C)NC(=O)[C@H](CCCCN)NC(=O)[C@@H](CS(=O)(=O)O)NC(=O)[C@@H](Cc2c[nH]c3ccccc23)NC1=O [Example 50, cyclo(-DTrp-nCys(O3 H)-Lys-DVal-Leu-)] (cyclo(K[dV]L[dW][dCya]))
inhibition at 1.1 µM [1]: 57%

CC(C)C[C@@H]1NC(=O)[C@@H](C(C)C)NC(=O)[C@@H]2CCCN2C(=O)[C@@H](CC(=O)O)NC(=O)[C@@H](Cc2cn(C=O)c3ccccc23)NC1=O [Example 51, cyclo(-DTrp(CHO)-DAsp-Pro-DVal-Leu-)] (cyclo(L[dW](For)[dD]P[dV]))
inhibition at 1.1 µM [1]: 84%

CCCC[C@@H]1NC(=O)[C@@H](C(C)C)NC(=O)[C@H](CO)NC(=O)[C@@H](CC(=O)O)NC(=O)[C@@H](Cc2cn(C=O)c3ccccc23)NC1=O [Example 54, cyclo(-DTrp(CHO)-DAsp-Ser-DVal-Nle-)] (cyclo([Nle][dW](For)[dD]S[dV]))
inhibition at 1.1 µM [1]: 65%

CSCC[C@@H]1NC(=O)[C@@H](CC(=O)O)NC(=O)[C@@H](Cc2cn(C=O)c3ccccc23)NC(=O)[C@H](CC(C)C)NC(=O)[C@@H](C(C)C)NC1=O [Example 55, cyclo(-DTrp(CHO)-DAsp-Met-DVal-Leu-)] (cyclo(L[dW](For)[dD]M[dV]))
inhibition at 1.1 µM [1]: 81%

CCC[C@@H]1NC(=O)[C@@H](C(C)C)NC(=O)[C@@H]2CCCN2C(=O)[C@@H](CC(=O)O)NC(=O)[C@@H](Cc2cn(C=O)c3ccccc23)NC1=O [Example 56, cyclo(-DTrp(CHO)-DAsp-Pro-DVal-Nva-)] (cyclo([Nva][dW](For)[dD]P[dV]))
inhibition at 1.1 µM [1]: 84%

CC(C)C[C@@H]1NC(=O)[C@@H](C(C)C)NC(=O)[C@H](CCCCNC=O)NC(=O)[C@@H](CC(=O)O)NC(=O)[C@@H](Cc2c[nH]c3ccccc23)NC1=O [Example 57, cyclo(-DTrp-DAsp-Lys(CHO)-DVal-Leu-)] (cyclo(K(For)[dV]L[dW][dD]))
inhibition at 1.1 µM [1]: 65%

CC(C)C[C@@H]1NC(=O)[C@@H](C(C)C)NC(=O)[C@H](CC[S+](C)[O-])NC(=O)[C@@H](CC(=O)O)NC(=O)[C@@H](Cc2cn(C=O)c3ccccc23)NC1=O (stereo partly drawn) [Example 58, cyclo(-DTrp(CHO)-DAsp-Met(O)-DVal-Leu-)] (cyclo(L[dW](For)[dD][Met(O)][dV]))
inhibition at 1.1 µM [1]: 84%

CC(C)C[C@@H]1NC(=O)[C@@H](C(C)(C)S)NC(=O)[C@@H]2CCCN2C(=O)[C@@H](CC(=O)O)NC(=O)[C@@H](Cc2c[nH]c3ccccc23)NC1=O [Example 60, cyclo(-DTrp-DAsp-Pro-DPen-Leu-)] (cyclo(L[dW][dD]P[dPen]))
inhibition at 1.1 µM [1]: 79%

CC(C)C[C@@H]1NC(=O)[C@@H](C(C)C)NC(=O)C(C)(C)NC(=O)[C@@H](CC(=O)O)NC(=O)[C@@H](Cc2c[nH]c3ccccc23)NC1=O [Example 61, cyclo(-DTrp-DAsp-Aib-DVal-Leu-)] (cyclo([Aib][dV]L[dW][dD]))
inhibition at 1.1 µM [1]: 66%

CC(C)C[C@@H]1NC(=O)C(C)(C)NC(=O)[C@@H]2CCCN2C(=O)[C@@H](CC(=O)O)NC(=O)[C@@H](Cc2c[nH]c3ccccc23)NC1=O [Example 62, cyclo(-DTrp-nAsp-Pro-Aib-Leu-)] (cyclo([Aib]L[dW][dD]P))
inhibition at 1.1 µM [1]: 60%

CC(C)C[C@@H]1NC(=O)C2(CCCCC2)NC(=O)[C@@H]2CCCN2C(=O)[C@@H](CC(=O)O)NC(=O)[C@@H](Cc2c[nH]c3ccccc23)NC1=O [Example 64, cyclo(-DTrp-DAsp-Pro-Ac6 c-Leu-)] (cyclo([Ac6c]L[dW][dD]P))
inhibition at 1.1 µM [1]: 83%

CC(C)C[C@@H]1NC(=O)[C@@H](C(C)C)NC(=O)CN(C)C(=O)[C@@H](CC(=O)O)NC(=O)[C@@H](Cc2c[nH]c3ccccc23)NC1=O [Example 65, cyclo(-DTrp-DAsp-Sar-DVal-Leu-)] (cyclo(L[dW][dD][Sar][dV]))
inhibition at 1.1 µM [1]: 85%
